Laboratory results published in US20070129358A1, “Sbstituted chroman derivatives, processes for their preparation and their use as antiinflammatory agents” (priority 2005, published 2007).

Tests used:
[1] = target: T1, glucocorticoid receptor (GR) (Homo sapiens, UniProt P04150); assay: Glucocorticoid receptor binding with recombinantly prepared receptor, [3H]-dexamethasone as reference; conditions: cytosol preparations of Sf9 cells infected with recombinant baculoviruses coding for GR
T1 construct: made in house; host or cells: Sf9 cells infected with recombinant baculovirus (cytosol preparation)
T1 sequence (P04150 1-777): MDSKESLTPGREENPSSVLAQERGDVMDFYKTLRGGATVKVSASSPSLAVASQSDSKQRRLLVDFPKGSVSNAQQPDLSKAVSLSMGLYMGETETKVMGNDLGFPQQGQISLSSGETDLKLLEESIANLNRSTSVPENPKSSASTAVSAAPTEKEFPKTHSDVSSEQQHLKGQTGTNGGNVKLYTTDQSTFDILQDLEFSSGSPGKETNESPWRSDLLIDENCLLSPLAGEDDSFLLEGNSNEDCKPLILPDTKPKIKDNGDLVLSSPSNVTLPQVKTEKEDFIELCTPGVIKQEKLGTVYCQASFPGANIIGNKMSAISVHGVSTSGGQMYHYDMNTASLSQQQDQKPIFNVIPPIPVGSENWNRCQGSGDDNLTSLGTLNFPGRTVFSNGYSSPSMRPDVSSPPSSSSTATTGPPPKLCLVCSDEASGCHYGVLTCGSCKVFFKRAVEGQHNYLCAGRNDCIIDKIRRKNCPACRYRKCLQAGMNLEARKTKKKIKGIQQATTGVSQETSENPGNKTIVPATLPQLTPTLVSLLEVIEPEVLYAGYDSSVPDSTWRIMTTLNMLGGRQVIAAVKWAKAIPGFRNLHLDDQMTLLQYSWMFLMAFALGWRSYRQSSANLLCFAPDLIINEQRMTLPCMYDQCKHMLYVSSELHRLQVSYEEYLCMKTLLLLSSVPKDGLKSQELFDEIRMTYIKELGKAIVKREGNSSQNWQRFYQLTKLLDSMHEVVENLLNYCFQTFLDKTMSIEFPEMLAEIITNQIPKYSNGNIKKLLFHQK
Excerpt: (§1) The binding of the substances to the glucocorticoid receptor (GR) and further steroid hormone receptors (mineral corticoid receptor (MR), progesterone receptor (PR) and androgen receptor (AR)) is examined with the aid of recombinantly prepared receptors. Cytosol preparations of Sf9 cells which had been infected with recombinant baculoviruses which code for the GR are employed for the binding studies. Compared with the reference substance [^3H]-dexamethasdne, the substances show a high affinity for the GR. Thus, an IC50(GR)=20 nM and IC50(PR) >1 μM was measured for the compound of example 1 and an IC50(GR)=30 nM and IC50(PR) >1 μM was measured for the compound of example 2.

[2] = target: T2, progesterone receptor (PR) (Homo sapiens, UniProt P06401); assay: Progesterone receptor binding with recombinantly prepared receptor
T2 construct: made in house
T2 sequence (P06401 1-933): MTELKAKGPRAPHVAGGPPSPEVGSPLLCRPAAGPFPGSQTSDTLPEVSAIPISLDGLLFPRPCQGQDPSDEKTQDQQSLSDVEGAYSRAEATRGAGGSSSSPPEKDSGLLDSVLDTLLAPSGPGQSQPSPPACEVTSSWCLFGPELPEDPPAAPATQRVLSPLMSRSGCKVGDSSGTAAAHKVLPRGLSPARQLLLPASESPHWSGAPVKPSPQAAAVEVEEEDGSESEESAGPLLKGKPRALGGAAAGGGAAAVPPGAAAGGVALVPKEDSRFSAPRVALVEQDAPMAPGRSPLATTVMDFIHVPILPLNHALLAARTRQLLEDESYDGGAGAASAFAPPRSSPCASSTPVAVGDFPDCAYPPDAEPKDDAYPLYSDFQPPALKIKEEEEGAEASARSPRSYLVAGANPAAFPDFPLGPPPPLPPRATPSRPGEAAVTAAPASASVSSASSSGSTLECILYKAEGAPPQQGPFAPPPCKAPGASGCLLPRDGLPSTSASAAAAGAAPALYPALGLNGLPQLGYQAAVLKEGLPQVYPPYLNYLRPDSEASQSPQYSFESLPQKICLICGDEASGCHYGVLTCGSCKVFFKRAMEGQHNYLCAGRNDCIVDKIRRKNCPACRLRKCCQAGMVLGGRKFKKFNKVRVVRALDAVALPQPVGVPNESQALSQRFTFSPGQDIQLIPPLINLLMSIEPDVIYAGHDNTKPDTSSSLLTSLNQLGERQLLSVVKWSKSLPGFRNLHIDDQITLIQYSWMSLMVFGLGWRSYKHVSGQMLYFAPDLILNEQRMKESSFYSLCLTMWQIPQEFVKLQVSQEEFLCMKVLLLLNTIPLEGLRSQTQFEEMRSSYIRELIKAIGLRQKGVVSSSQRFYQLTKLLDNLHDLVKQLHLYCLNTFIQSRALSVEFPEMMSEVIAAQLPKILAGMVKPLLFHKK
Excerpt: as §1

Compound	IC50 [1]	IC50 [2]
CC1(CC(O)(CNc2cccc3[nH]c(=O)ccc23)C(F)(F)F)CCOc2ccccc21 (single isomer, unassigned) [Example 2, 5-{[2-Hydroxy-3-(4-methylchroman-4-yl)-2-trifluoro-methylpropyl]amino}quinolin-2{1H}-one]	30 nM	> 1000 nM
O=c1ccc2c(NCC(O)(CC3CCOc4ccccc43)C(F)(F)F)cccc2[nH]1 (stereo not shown) [Example 1]	20 nM	> 1000 nM
